Our source for the efflux ratio values is paper PMC11054271, “ABCG2 Transports the Flukicide Nitroxynil and Affects Its Biodistribution and Secretion into Milk” (Pharmaceutics, 2024).

The target in the data set is T1, human ABCG2 (Homo sapiens, UniProt Q9UNQ0).
T1 construct: expressed in transfected cells; host or cells: MDCK-II (canine kidney) subclone, provided by A. H. Schinkel (Netherlands Cancer Institute)
T1 sequence (Q9UNQ0 1-655): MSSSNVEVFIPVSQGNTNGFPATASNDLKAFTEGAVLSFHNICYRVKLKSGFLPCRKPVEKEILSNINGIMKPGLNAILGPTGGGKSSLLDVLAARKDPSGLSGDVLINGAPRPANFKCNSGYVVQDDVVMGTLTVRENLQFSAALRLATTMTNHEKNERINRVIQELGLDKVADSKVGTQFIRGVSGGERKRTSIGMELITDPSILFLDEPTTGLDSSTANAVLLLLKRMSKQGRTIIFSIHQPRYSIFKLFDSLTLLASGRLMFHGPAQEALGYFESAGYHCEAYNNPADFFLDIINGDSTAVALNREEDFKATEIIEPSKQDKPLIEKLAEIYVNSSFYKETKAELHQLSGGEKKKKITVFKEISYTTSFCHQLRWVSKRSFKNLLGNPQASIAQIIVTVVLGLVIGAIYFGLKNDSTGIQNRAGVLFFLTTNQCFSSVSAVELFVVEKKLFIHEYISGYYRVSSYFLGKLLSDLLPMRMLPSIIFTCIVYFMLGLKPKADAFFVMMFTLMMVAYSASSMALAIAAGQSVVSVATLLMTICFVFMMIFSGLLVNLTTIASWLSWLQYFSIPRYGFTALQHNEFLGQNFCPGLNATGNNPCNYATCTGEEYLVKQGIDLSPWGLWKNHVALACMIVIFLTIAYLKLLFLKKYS
As to the kind of experiment: Transepithelial transport assay in MDCK-II cells transduced with human ABCG2. It counts as in vitro ADME. Conditions: MDCK-II hABCG2, nitroxynil 10 µM, no Ko143, read-out: Relative efflux transport ratio (BA/AB). As for the experimental part: Parental Madin–Darby canine kidney epithelial cells (MDCK–II) and their subclones transduced with murine (mAbcg2) and human (hABCG2) variants of ABCG2 were kindly provided by Dr. A. H. Schinkel (Netherlands Cancer Institute). Transduced MDCK–II cells with the ovine (oABCG2) and bovine (bABCG2) variants were previously generated by our group. Cells were cultured as described elsewhere.
Transepithelial transport assays were carried out as previously described with minor variations, using Hanks’ balanced salt solution (Sigma-Aldrich) supplemented with HEPES (25 mM), with or without Ko143 (1 μM), and containing or not nitroxynil 10 μM. […] At the end of the experiment, confluence of the monolayer was measured with the previously described Lucifer Yellow permeability test, with minor modifications. The appearance of nitroxynil in the opposite side of the well was measured by HPLC as later described. Active transport was expressed as relative efflux transport ratio (apically directed transport percentage divided by the basolaterally directed translocation percentage) at 4 h and referred to the initial concentration. […]
Waters 2695 separation module and Waters 2998 UV photodiode array detector set at 270 nm were used for samples analysis. […] Limit of detection (LOD) and quantification (LOQ) were calculated as previously described. […]

Regarding `N#Cc1cc(I)c(O)c([N+](=O)[O-])c1` [nitroxynil], the efflux ratio at 4 h, 10 µM is 8.76 ± 0.5.
